# Results: US20140011799A1 (Bristol-Myers Squibb Company, priority 2012, published 2014)
# Target: T1, Endothelial lipase (EL) (Homo sapiens, UniProt Q9Y5X9)
# T1 construct: HT-1080 cells that were transformed using RAGE technology (Athersys) to overexpress endogenous EL; endogenous in cells; conditioned medium used
# T1 sequence (Q9Y5X9 21-500): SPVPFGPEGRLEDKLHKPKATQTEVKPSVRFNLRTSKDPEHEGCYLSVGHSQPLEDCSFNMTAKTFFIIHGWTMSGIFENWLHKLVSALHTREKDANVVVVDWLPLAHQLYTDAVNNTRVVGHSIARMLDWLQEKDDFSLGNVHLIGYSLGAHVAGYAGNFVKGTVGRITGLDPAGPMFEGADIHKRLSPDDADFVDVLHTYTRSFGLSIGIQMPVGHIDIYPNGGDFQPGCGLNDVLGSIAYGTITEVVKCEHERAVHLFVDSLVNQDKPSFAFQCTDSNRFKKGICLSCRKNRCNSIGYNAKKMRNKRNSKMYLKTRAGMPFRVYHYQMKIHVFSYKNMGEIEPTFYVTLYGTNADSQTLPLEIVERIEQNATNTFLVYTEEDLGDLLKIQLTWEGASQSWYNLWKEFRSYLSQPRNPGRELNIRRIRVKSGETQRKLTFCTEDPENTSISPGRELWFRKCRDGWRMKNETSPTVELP
# Test: Endothelial lipase (EL) enzymatic assay, fluorescent substrate A10070 in DMPG vesicles
# Type: biochemical
# Conditions: EL from conditioned media of HT-1080 cells; compound preincubated 30 min at 37° C; read-out: EL IC50
# How it was run: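 Compounds were preincubated with enzyme for 30 min at 37° C before FRET-substrate vesicles (A10070 in DMPG, 0.11 mole fraction) were added. Reaction rates were obtained from the 300–900 sec slope of fluorescence at 490/530 nm.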
row,Structure (SMILES),IC50
1,"NS(=O)(=O)NCc1nnc(C(c2nc3ccc(-c4ccccc4)cc3s2)S(=O)(=O)Cc2cccc(C(F)(F)F)c2)o1 (centres unmarked) [Example 62, N-((5-(((3-(trifluoromethyl)benzyl)sulfonyl) (6-phenyl-1,3-benzothiazol-2-yl)methyl)-1,3,4-oxadiazol-2-yl)methyl)sulfamide]",< 10 nM
2,"NS(=O)(=O)NCc1nnc(C(c2nc3ccc(-c4ccccc4)cc3s2)S(=O)(=O)CCCC(F)(F)F)o1 (centres unmarked) [Example 63, N-[(5-{(6-phenyl-1,3-benzothiazol-2-yl) [(4,4,4-trifluorobutyl)sulfonyl]methyl}-1,3,4-oxadiazol-2-yl)methyl] sulfuric diamide]",< 10 nM
3,"Cc1cccc(CS(=O)(=O)C(c2nnc(CNS(N)(=O)=O)o2)c2nc3ccc(-c4ccccc4)cc3s2)c1 (centres unmarked) [Example 64, N-((5-(((3-methylbenzyl)sulfonyl)(6-phenyl-1,3-benzothiazol-2-yl)methyl)-1,3,4-oxadiazol-2-yl)methyl)sulfamide]",< 10 nM
4,"NS(=O)(=O)NCc1nnc(C(c2nc3ccc(-c4ccccc4)cc3s2)S(=O)(=O)C2CCCC2)o1 (centres unmarked) [Example 67, N-({5-[(cyclopentylsulfonyl) (6-phenyl-1,3-benzothiazol-2-yl)methyl]-1,3,4-oxadiazol-2-yl}methyl)sulfuric diamide]",< 10 nM
5,"CC(C)CS(=O)(=O)C(c1nnc(CNS(N)(=O)=O)o1)c1nc2ccc(-c3ccccc3)cc2s1 (centres unmarked) [Example 68, N-[(5-{6-phenyl-1,3-benzothiazol-2-yl[(2-methylpropyl)sulfonyl]methyl}-1,3,4-oxadiazol-2-yl)methyl]sulfuric diamide]",< 10 nM
6,"NS(=O)(=O)NCc1nnc(C(c2nc3ccc(-c4ccccc4)cc3s2)S(=O)(=O)Cc2ccc(F)cc2)o1 (centres unmarked) [Example 69, N-((5-(((4-fluorobenzyl)sulfonyl)(6-phenyl-1,3-benzothiazol-2-yl)methyl)-1,3,4-oxadiazol-2-yl)methyl)sulfamide]",< 10 nM
7,"Cc1ccccc1CS(=O)(=O)C(c1nnc(CNS(N)(=O)=O)o1)c1nc2ccc(-c3ccccc3)cc2s1 (centres unmarked) [Example 70, N-((5-(((2-methylbenzyl)sulfonyl)(6-phenyl-1,3-benzothiazol-2-yl)methyl)-1,3,4-oxadiazol-2-yl)methyl) sulfamide]",< 10 nM
8,"NS(=O)(=O)NCc1nnc(C(c2nc3ccc(-c4ccccc4)cc3s2)S(=O)(=O)Cc2cc(C(F)(F)F)cc(C(F)(F)F)c2)o1 (centres unmarked) [Example 72, N-((5-(((3,5-bis (trifluoromethyl)benzyl)sulfonyl) (6-phenyl-1,3-benzothiazol-2-yl)methyl)-1,3,4-oxadiazol-2-yl)methyl)sulfamide]",< 10 nM
9,"NS(=O)(=O)NCc1nnc(C(c2nc3ccc(-c4ccccc4)cc3s2)S(=O)(=O)Cc2cccc(Cl)c2)o1 (centres unmarked) [Example 73, N-((5-(((3-chlorobenzyl)sulfonyl)(6-phenyl-1,3-benzothiazol-2-yl)methyl)-1,3,4-oxadiazol-2-yl)methyl)sulfamide]",< 10 nM
10,"NS(=O)(=O)NCc1nnc(C(c2nc3ccc(-c4ccccc4)cc3s2)S(=O)(=O)C2CC2)o1 (centres unmarked) [Example 74, N-({5-[(cyclopropylsulfonyl) (6-phenyl-1,3-benzothiazol-2-yl)methyl]-1,3,4-oxadiazol-2-yl}methyl) sulfuric diamide]",< 10 nM
11,"NS(=O)(=O)NCc1nnc(C(c2nc3ccc(-c4ccc(F)nc4)cc3s2)S(=O)(=O)Cc2ccccc2)o1 (centres unmarked) [Example 75, N-((5-((benzylsulfonyl) (6-(6-fluoro-3-pyridinyl)-1,3-benzothiazol-2-yl)methyl)-1,3,4-oxadiazol-2-yl)methyl)sulfamide]",< 10 nM
12,"NS(=O)(=O)NCc1nnc(C(c2nc3ccc(-c4ccc(F)nc4)cc3s2)S(=O)(=O)Cc2ccc(C(F)(F)F)nc2)o1 (centres unmarked) [Example 76, N-({5-[6-(6-fluoro-3-pyridinyl)-1,3-benzothiazol-2-yl({[6-(trifluoromethyl)pyridin-3-yl]methyl}sulfonyl)methyl]-1,3,4-oxadiazol-2-yl}methyl) sulfuric diamide]",11 nM
13,"NS(=O)(=O)NCc1nnc(C(c2nc3ccc(-c4ccc(F)nc4)cc3s2)S(=O)(=O)Cc2ccc(F)nc2)o1 (centres unmarked) [Example 77, N-({5-[6-(6-fluoro-3-pyridinyl)-1,3-benzothiazol-2-yl({[6-fluoro-pyridin-3-yl]methyl}sulfonyl)methyl]-1,3,4-oxadiazol-2-yl}methyl)sulfuric diamide]",18 nM
14,"CS(=O)(=O)C(c1nnc(CNS(N)(=O)=O)o1)c1nc2ccc(-c3ccc(C(=O)NCC(F)(F)F)cc3)cc2s1 (centres unmarked) [Example 78, 4-(2-((methylsulfonyl) (5-((sulfamoylamino)methyl)-1,3,4-oxadiazol-2-yl)methyl)benzo[d]thiazol-6-yl)-N-(2,2,2-trifluoroethyl) benzamide]",< 10 nM
15,"CS(=O)(=O)C(c1nnc(CNS(N)(=O)=O)o1)c1nc2ccc(-c3ccc(F)nc3)cc2s1 (centres unmarked) [Example 79, N-((5-((6-(6-fluoro-3-pyridinyl)-1,3-benzothiazol-2-yl)(methylsulfonyl)methyl)-1,3,4-oxadiazol-2-yl)methyl)sulfamide]",< 10 nM
16,CN(Cc1nnc(C(c2nc3ccc(-c4ccccc4)cc3s2)S(=O)(=O)Cc2ccccc2)o1)S(N)(=O)=O (centres unmarked) [Example 81],32 nM
17,"CC(C)(C)CN1CC(c2nnc(C(c3nc4ccc(-c5ccccc5)cc4s3)S(=O)(=O)Cc3ccccc3)o2)C1 (centres unmarked) [Example 82, 2-((Benzylsulfonyl)(6-phenylbenzo[d]thiazol-2-yl)methyl)-5-(1-neopentylazetidin-3-yl)-1,3,4-oxadiazole]",26 nM
18,"CC(C)(C)OC(=O)N(Cc1nnc(C(c2nc3ccc(-c4ccccc4)cc3s2)S(C)(=O)=O)o1)S(C)(=O)=O (centres unmarked) [Example 84, tert-Butyl methylsulfonyl((5-((methylsulfonyl)(6-phenylbenzo[d]thiazol-2-yl)methyl)-1,3,4-oxadiazol-2-yl)methyl)carbamate]",< 10 nM
19,"CCNC(=O)NCc1nnc(C(c2nc3ccc(-c4ccccc4)cc3s2)S(C)(=O)=O)o1 (centres unmarked) [Example 87, 1-Ethyl-3((5-((methylsulfonyl)(6-phenylbenzo[d]thiazol-2-yl)methyl)-1,3,4-oxadiazol-2-yl)methyl)urea]",46 nM
20,"CS(=O)(=O)C(c1nnc(CS(N)(=O)=O)o1)c1nc2ccc(-c3ccccc3)cc2s1 (centres unmarked) [Example 89, (5-((Methylsulfonyl)(6-phenylbenzo[d]thiazol-2-yl)methyl)-1,3,4-oxadiazol-2-yl)methanesulfonamide]",< 10 nM

# Now from value to compound:
row,IC50,Structure (SMILES)
1,< 10 nM,"NS(=O)(=O)NCc1nnc(C(c2nc3ccc(-c4ccccc4)cc3s2)S(=O)(=O)CC2CC2)o1 (centres unmarked) [Example 61, N-[(5-{6-phenyl-1,3-benzothiazol-2-yl [(cyclopropylmethyl)sulfonyl]methyl}-1,3,4-oxadiazol-2-yl)methyl]sulfuric diamide]"
2,< 10 nM,"CCS(=O)(=O)C(c1nnc(CNS(N)(=O)=O)o1)c1nc2ccc(-c3ccccc3)cc2s1 (centres unmarked) [Example 65, N-({5-[(ethylsulfonyl) (6-phenyl-1,3-benzothiazol-2-yl)methyl]-1,3,4-oxadiazol-2-yl}methyl)sulfuric diamide]"
3,< 10 nM,"CCCS(=O)(=O)C(c1nnc(CNS(N)(=O)=O)o1)c1nc2ccc(-c3ccccc3)cc2s1 (centres unmarked) [Example 66, N-({5-[(propylsulfonyl) (6-phenyl-1,3-benzothiazol-2-yl)methyl]-1,3,4-oxadiazol-2-yl}methyl) sulfuric diamide]"
4,< 10 nM,"NS(=O)(=O)NCc1nnc(C(c2nc3ccc(-c4ccccc4)cc3s2)S(=O)(=O)CC2CCCCC2)o1 (centres unmarked) [Example 71, N-((5-(((cyclohexylmethyl)sulfonyl)(6-phenyl-1,3-benzothiazol-2-yl)methyl)-1,3,4-oxadiazol-2-yl)methyl)sulfamide]"
5,57 nM,"CN1CCN(C(=O)c2ccc(-c3ccc4nc(C(c5nnc(CNS(N)(=O)=O)o5)S(C)(=O)=O)sc4c3)cc2)CC1 (centres unmarked) [Example 80, N-((5-((6-(4-((4-methyl-1-piperazinyl)carbonyl)phenyl)-1,3-benzothiazol-2-yl)(methylsulfonyl)methyl)-1,3,4-oxadiazol-2-yl)methyl)sulfamide]"
6,< 10 nM,"CC(C)(C)OC(=O)NCc1nnc(C(c2nc3ccc(-c4ccccc4)cc3s2)S(C)(=O)=O)o1 (centres unmarked) [Example 83, tert-Butyl ((5-((methylsulfonyl)(6-phenylbenzo[d]thiazol-2-yl)methyl)-1,3,4-oxadiazol-2-yl)methyl)carbamate]"
7,48 nM,"CS(=O)(=O)C(c1nnc(CN)o1)c1nc2ccc(-c3ccccc3)cc2s1 (centres unmarked) [Example 85, (5-((Methylsulfonyl)(6-phenylbenzo[d]thiazol-2-yl)methyl)-1,3,4-oxadiazol-2-yl)methanamine]"
8,47 nM,"CS(=O)(=O)NCc1nnc(C(c2nc3ccc(-c4ccccc4)cc3s2)S(C)(=O)=O)o1 (centres unmarked) [Example 86, N-((5-((Methylsulfonyl)(6-phenylbenzo[d]thiazol-2-yl)methyl)-1,3,4-oxadiazol-2-yl)methyl)methanesulfonamide]"
9,195 nM,"CC(C)C(=O)NCc1nnc(C(c2nc3ccc(-c4ccccc4)cc3s2)S(C)(=O)=O)o1 (centres unmarked) [Example 88, N-((5-((Methylsulfonyl)(6-phenylbenzo[d]thiazol-2-yl)methyl)-1,3,4-oxadiazol-2-yl)methyl)isobutyramide]"
